Source: ChEMBL document CHEMBL1147318, “Inhibitory Substances from Myriophyllum brasiliense on Growth of Blue-Green Algae” (J Nat Prod, 1989)
Active and inactive are the calls of the source. The calls are words filed in the database; no cut-off is given here.

Experiments:
Type in all cases: functional, organism-based
[1] = system: Dolichospermum flos-aquae; assay: Antialgal activity against Anabaena flos-aquae NIES 73 after 48 hrs by fluorophotometric method
Microcystis aeruginosa [2] = assay: Antialgal activity against Microcystis aeruginosa NIES 44 after 24 hrs by fluorophotometric method
Microcystis aeruginosa [3] = assay: Antialgal activity against Microcystis aeruginosa NIES 44 up to 500 uM after 24 hrs by fluorophotometric method

SMILES | IC50 [1] [µM] | IC50 (Microcystis aeruginosa [2]) [µM] | Activity (Microcystis aeruginosa [3])
O=C(O[C@@H]1[C@@H](OC(=O)c2cc(O)c(O)c(O)c2)[C@H](O)O[C@@H]2COC(=O)c3cc(O)c(O)c(O)c3-c3c(cc(O)c(O)c3O)C(=O)O[C@@H]12)c1cc(O)c(O)c(O)c1 | 9.5 | 3.7 | –
OC[C@H]1OC(O)[C@H](O)[C@@H](O)[C@@H]1O (stereo partly drawn) | – | – | inactive
O=c1c(O[C@@H]2O[C@@H](CO)[C@H](O)[C@H]2O)c(-c2ccc(O)c(O)c2)oc2cc(O)cc(O)c12 [AVICULARIN] | 28 | 180 | –
O=C(O[C@@H]1O[C@@H]2COC(=O)c3cc(O)c(O)c(O)c3-c3c(cc(O)c(O)c3O)C(=O)O[C@H]2[C@H](OC(=O)c2cc(O)c(O)c(O)c2)[C@H]1OC(=O)c1cc(O)c(O)c(O)c1)c1cc(O)c(O)c(O)c1 [EUGENIIN] | 2.8 | 1.6 | –
O=C(O)c1cc(O)c(O)c(O)c1 [GALLIC ACID] | 33 | 19 | –
O=c1c(O)c(-c2ccc(O)c(O)c2)oc2cc(O)cc(O)c12 [QUERCETIN] | 25 | 12 | –
C[C@@H]1O[C@@H](Oc2c(-c3ccc(O)c(O)c3)oc3cc(O)cc(O)c3c2=O)[C@H](O)[C@H](O)[C@H]1O [QUERCITRIN] | 45 | 9 | –
